Measurements published in US10681909B2, “Herbicidal triazoles” (FMC Corporation, priority 2014, dated 2020).

Key:
[1] = test system: barnyardgrass; experiment: Test A preemergence; assay type: in vivo, Echinochloa crus-galli; settings: 0 to 100 scale (0 no effect, 100 complete control)
Excerpt: (§1) Seeds of plant species selected from barnyardgrass (Echinochloa crus-galli), crabgrass, large (large crabgrass, Digitaria sanguinalis), kochia (Kochia scoparia), ragweed (common ragweed, Ambrosia elatior), foxtail, giant (giant foxtail, Setaria faberii), morningglory (Ipomoea spp.), pigweed (Amaranthus retroflexus), velvetleaf (Abutilon theophrasti), ryegrass, Italian (Italian ryegrass, Lolium multiflorum), wheat (Triticum aestivum), and corn (Zea mays) were planted into a blend of loam soil and sand and treated preemergence with a directed soil spray using test chemicals formulated in a non-phytotoxic solvent mixture which included a surfactant. At the same time, plants selected from these crop and weed species and also blackgrass (Alopecurus myosuroides), and galium (catchweed bedstraw, Galium aparine), were planted in pots containing the same blend of loam soil and sand and treated with postemergence applications of test chemicals formulated in the same manner. Plants ranged in height from 2 to 10 cm and were in the one- to two-leaf stage for the postemergence treatment. […] A dash (-) response means no test result.

[2] = test system: kochia; experiment: Test A preemergence; assay type: in vivo, Kochia scoparia; settings: 0 to 100 scale (0 no effect, 100 complete control)
Excerpt: (§2) Seeds of plant species selected from barnyardgrass (Echinochloa crus-galli), crabgrass, large (large crabgrass, Digitaria sanguinalis), kochia (Kochia scoparia), ragweed (common ragweed, Ambrosia elatior), foxtail, giant (giant foxtail, Setaria faberii), morningglory (Ipomoea spp.), pigweed (Amaranthus retroflexus), velvetleaf (Abutilon theophrasti), ryegrass, Italian (Italian ryegrass, Lolium multiflorum), wheat (Triticum aestivum), and corn (Zea mays) were planted into a blend of loam soil and sand and treated preemergence with a directed soil spray using test chemicals formulated in a non-phytotoxic solvent mixture which included a surfactant.
(§3) At the same time, plants selected from these crop and weed species and also blackgrass (Alopecurus myosuroides), and galium (catchweed bedstraw, Galium aparine), were planted in pots containing the same blend of loam soil and sand and treated with postemergence applications of test chemicals formulated in the same manner. Plants ranged in height from 2 to 10 cm and were in the one- to two-leaf stage for the postemergence treatment. Treated plants and untreated controls were maintained in a greenhouse for approximately 10 d, after which time all treated plants were compared to untreated controls and visually evaluated for injury. Plant response ratings, summarized in Table A, are based on a 0 to 100 scale where 0 is no effect and 100 is complete control. A dash (-) response means no test result.

[3] = test system: ragweed; experiment: Test A preemergence; assay type: in vivo, Ambrosia elatior; settings: 0 to 100 scale (0 no effect, 100 complete control)
Excerpt: as §2, §3

[4] = test system: foxtail, giant; experiment: Test A preemergence; assay type: in vivo, Setaria faberii; settings: 0 to 100 scale (0 no effect, 100 complete control)
Excerpt: as §1

[5] = test system: pigweed; experiment: Test A preemergence; assay type: in vivo, Amaranthus retroflexus; settings: 0 to 100 scale (0 no effect, 100 complete control)
Excerpt: as §1

[6] = test system: ryegrass, Italian; experiment: Test A preemergence; assay type: in vivo, Lolium multiflorum; settings: 0 to 100 scale (0 no effect, 100 complete control)
Excerpt: as §2, §3

[7] = test system: barnyardgrass; experiment: Test A postemergence; assay type: in vivo, Echinochloa crus-galli; settings: 0 to 100 scale (0 no effect, 100 complete control), approx. 10 d
Excerpt: as §1

[8] = test system: kochia; experiment: Test A postemergence; assay type: in vivo, Kochia scoparia; settings: 0 to 100 scale (0 no effect, 100 complete control), approx. 10 d
Excerpt: as §2, §3

[9] = test system: ragweed; experiment: Test A postemergence; assay type: in vivo, Ambrosia elatior; settings: 0 to 100 scale (0 no effect, 100 complete control), approx. 10 d
Excerpt: as §2, §3

[10] = test system: foxtail, giant; experiment: Test A postemergence; assay type: in vivo, Setaria faberii; settings: 0 to 100 scale (0 no effect, 100 complete control), approx. 10 d
Excerpt: as §1

[11] = test system: pigweed; experiment: Test A postemergence; assay type: in vivo, Amaranthus retroflexus; settings: 0 to 100 scale (0 no effect, 100 complete control), approx. 10 d
Excerpt: as §1

[12] = test system: ryegrass, Italian; experiment: Test A postemergence; assay type: in vivo, Lolium multiflorum; settings: 0 to 100 scale (0 no effect, 100 complete control), approx. 10 d
Excerpt: as §2, §3

[13] = test system: wheat; experiment: Test A postemergence; assay type: in vivo, Triticum aestivum; settings: 0 to 100 scale (0 no effect, 100 complete control), approx. 10 d
Excerpt: as §1

[14] = test system: corn; experiment: Test A postemergence; assay type: in vivo, Zea mays; settings: 0 to 100 scale (0 no effect, 100 complete control), approx. 10 d
Excerpt: as §1

[15] = test system: blackgrass; experiment: Test A postemergence; assay type: in vivo, Alopecurus myosuroides; settings: 0 to 100 scale (0 no effect, 100 complete control), approx. 10 d
Excerpt: as §2, §3

[16] = test system: galium; experiment: Test A postemergence; assay type: in vivo, Galium aparine; settings: 0 to 100 scale (0 no effect, 100 complete control), approx. 10 d
Excerpt: as §2, §3

Row | Compound | Plant response rating, Barnyardgrass ([1]; 31 g ai/ha) | Plant response rating, Barnyardgrass ([1]; 125 g ai/ha) | Plant response rating, Kochia ([2]; 31 g ai/ha) | Plant response rating, Kochia ([2]; 125 g ai/ha) | Plant response rating, Ragweed ([3]; 31 g ai/ha) | Plant response rating, Ragweed ([3]; 125 g ai/ha) | Plant response rating, Foxtail, Giant ([4]; 31 g ai/ha) | Plant response rating, Foxtail, Giant ([4]; 125 g ai/ha) | Plant response rating, Pigweed ([5]; 31 g ai/ha) | Plant response rating, Pigweed ([5]; 125 g ai/ha) | Plant response rating, Ryegrass, Italian ([6]; 31 g ai/ha) | Plant response rating, Ryegrass, Italian ([6]; 125 g ai/ha) | Plant response rating, Barnyardgrass ([7]; 31 g ai/ha) | Plant response rating, Barnyardgrass ([7]; 125 g ai/ha) | Plant response rating, Kochia ([8]; 31 g ai/ha) | Plant response rating, Kochia ([8]; 125 g ai/ha) | Plant response rating, Ragweed ([9]; 31 g ai/ha) | Plant response rating, Ragweed ([9]; 125 g ai/ha) | Plant response rating, Foxtail, Giant ([10]; 31 g ai/ha) | Plant response rating, Foxtail, Giant ([10]; 125 g ai/ha) | further results
1 | Cc1nc(-c2ccc(F)cc2)nn1Cc1ccnc(C(F)(F)F)c1 [Compound 38] | 0 | 80 | 30 | 100 | 0 | 20 | 20 | 100 | 90 | 100 | 0 | 10 | 0 | 20 | 70 | 90 | 0 | 30 | 20 | 80 | Plant response rating, Pigweed ([11]; 31 g ai/ha): 80; Plant response rating, Pigweed ([11]; 125 g ai/ha): 90; Plant response rating, Ryegrass, Italian ([12]; 31 g ai/ha): 0; Plant response rating, Ryegrass, Italian ([12]; 125 g ai/ha): 0; Plant response rating, Wheat ([13]; 31 g ai/ha): 0; Plant response rating, Wheat ([13]; 125 g ai/ha): 10; Plant response rating, Corn ([14]; 31 g ai/ha): 10; Plant response rating, Corn ([14]; 125 g ai/ha): 30; Plant response rating, Blackgrass ([15]; 31 g ai/ha): 10; Plant response rating, Blackgrass ([15]; 125 g ai/ha): 40; Plant response rating, Galium ([16]; 31 g ai/ha): 30; Plant response rating, Galium ([16]; 125 g ai/ha): 90
2 | FC(F)(F)COc1nc(-c2ccc(C(F)(F)F)cc2)nn1Cc1ccnc(C(F)(F)F)c1 [Compound 34] | 30 | 100 | 20 | 90 | 0 | 30 | 100 | 100 | 100 | 100 | 0 | 90 | 20 | 70 | 70 | 90 | 20 | 50 | 20 | 90 | Plant response rating, Pigweed ([11]; 31 g ai/ha): 100; Plant response rating, Pigweed ([11]; 125 g ai/ha): 100; Plant response rating, Ryegrass, Italian ([12]; 31 g ai/ha): 0; Plant response rating, Ryegrass, Italian ([12]; 125 g ai/ha): 20; Plant response rating, Wheat ([13]; 31 g ai/ha): 30; Plant response rating, Wheat ([13]; 125 g ai/ha): 50; Plant response rating, Corn ([14]; 31 g ai/ha): 20; Plant response rating, Corn ([14]; 125 g ai/ha): 20; Plant response rating, Blackgrass ([15]; 31 g ai/ha): 20; Plant response rating, Blackgrass ([15]; 125 g ai/ha): 50; Plant response rating, Galium ([16]; 31 g ai/ha): 30; Plant response rating, Galium ([16]; 125 g ai/ha): 90
